Measurements taken from article PMC8213057, “Targeting ALK2: An Open Science Approach to Developing Therapeutics for the Treatment of Diffuse Intrinsic Pontine Glioma” (Journal of Medicinal Chemistry, 2020).

Key:
PLK2 = PLK2 (Homo sapiens, UniProt Q9NYY3); assay: biochemical; settings: read-out: % enzyme activity, 1 μM; Run 1, Run 2
DYRK4 = target: T1, DYRK4 (Homo sapiens, UniProt Q9NR20); settings: 1 μM; Run 1, Run 2
T1 sequence (Q9NR20 1-520): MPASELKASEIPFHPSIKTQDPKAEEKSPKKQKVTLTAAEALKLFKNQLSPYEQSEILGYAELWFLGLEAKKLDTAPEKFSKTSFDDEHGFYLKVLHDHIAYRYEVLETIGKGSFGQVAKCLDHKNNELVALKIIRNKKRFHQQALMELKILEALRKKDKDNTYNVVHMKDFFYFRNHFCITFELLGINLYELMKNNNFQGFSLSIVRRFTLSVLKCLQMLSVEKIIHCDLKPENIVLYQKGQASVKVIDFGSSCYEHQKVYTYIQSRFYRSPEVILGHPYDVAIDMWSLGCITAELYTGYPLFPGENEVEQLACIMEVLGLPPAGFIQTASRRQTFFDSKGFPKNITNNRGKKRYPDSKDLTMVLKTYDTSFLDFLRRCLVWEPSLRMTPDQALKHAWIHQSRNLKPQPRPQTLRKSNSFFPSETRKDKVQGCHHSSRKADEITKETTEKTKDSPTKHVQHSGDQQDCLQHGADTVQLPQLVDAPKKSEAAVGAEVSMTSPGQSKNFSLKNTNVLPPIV

PDGFRa = PDGFRa (Homo sapiens, UniProt P16234); assay: biochemical; settings: read-out: % enzyme activity, 1 μM; Run 1, Run 2
SLK/STK2 = SLK/STK2 (Homo sapiens, UniProt Q9H2G2); assay: biochemical; settings: read-out: % enzyme activity, 1 μM; Run 1, Run 2
HIPK2 = HIPK2 (Homo sapiens, UniProt Q9H2X6); assay: biochemical; settings: read-out: % enzyme activity, 1 μM; Run 1, Run 2
Chain of HIPK2 (Q9H2X6 whole entry): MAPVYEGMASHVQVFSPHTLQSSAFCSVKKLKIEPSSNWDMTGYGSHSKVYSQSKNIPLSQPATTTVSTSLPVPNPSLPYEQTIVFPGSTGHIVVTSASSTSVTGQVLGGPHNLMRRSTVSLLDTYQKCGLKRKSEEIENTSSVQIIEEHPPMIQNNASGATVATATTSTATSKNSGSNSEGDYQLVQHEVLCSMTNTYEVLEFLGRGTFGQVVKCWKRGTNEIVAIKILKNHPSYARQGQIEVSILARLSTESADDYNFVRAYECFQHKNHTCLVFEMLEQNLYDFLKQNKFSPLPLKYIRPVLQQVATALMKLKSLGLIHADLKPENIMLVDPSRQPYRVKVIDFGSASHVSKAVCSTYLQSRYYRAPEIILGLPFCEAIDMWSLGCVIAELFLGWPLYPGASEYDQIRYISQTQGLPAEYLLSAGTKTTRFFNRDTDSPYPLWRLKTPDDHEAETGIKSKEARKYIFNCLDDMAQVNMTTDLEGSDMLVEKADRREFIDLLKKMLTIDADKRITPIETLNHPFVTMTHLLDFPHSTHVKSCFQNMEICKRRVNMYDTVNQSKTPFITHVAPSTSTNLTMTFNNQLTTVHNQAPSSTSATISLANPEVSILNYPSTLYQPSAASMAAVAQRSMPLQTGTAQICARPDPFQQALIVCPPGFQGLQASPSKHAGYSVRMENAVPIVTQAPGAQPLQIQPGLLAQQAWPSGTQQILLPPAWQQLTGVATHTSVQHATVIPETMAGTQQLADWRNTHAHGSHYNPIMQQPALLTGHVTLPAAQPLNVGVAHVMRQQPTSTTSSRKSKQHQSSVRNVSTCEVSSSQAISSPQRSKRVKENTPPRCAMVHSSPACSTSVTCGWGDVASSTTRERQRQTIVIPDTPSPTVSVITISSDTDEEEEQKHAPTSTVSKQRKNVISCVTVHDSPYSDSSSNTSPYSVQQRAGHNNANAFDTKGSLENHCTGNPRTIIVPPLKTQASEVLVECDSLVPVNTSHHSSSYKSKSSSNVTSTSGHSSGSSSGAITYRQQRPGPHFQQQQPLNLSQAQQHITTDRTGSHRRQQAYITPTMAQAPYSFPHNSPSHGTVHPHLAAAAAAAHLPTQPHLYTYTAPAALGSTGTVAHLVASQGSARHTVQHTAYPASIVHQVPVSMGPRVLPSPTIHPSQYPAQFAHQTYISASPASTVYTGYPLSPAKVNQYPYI

MYLK3 = target: T2, MYLK3 (Homo sapiens, UniProt Q32MK0); assay: biochemical; settings: read-out: % enzyme activity, 1 μM; Run 1, Run 2
T2 sequence (Q32MK0 1-819): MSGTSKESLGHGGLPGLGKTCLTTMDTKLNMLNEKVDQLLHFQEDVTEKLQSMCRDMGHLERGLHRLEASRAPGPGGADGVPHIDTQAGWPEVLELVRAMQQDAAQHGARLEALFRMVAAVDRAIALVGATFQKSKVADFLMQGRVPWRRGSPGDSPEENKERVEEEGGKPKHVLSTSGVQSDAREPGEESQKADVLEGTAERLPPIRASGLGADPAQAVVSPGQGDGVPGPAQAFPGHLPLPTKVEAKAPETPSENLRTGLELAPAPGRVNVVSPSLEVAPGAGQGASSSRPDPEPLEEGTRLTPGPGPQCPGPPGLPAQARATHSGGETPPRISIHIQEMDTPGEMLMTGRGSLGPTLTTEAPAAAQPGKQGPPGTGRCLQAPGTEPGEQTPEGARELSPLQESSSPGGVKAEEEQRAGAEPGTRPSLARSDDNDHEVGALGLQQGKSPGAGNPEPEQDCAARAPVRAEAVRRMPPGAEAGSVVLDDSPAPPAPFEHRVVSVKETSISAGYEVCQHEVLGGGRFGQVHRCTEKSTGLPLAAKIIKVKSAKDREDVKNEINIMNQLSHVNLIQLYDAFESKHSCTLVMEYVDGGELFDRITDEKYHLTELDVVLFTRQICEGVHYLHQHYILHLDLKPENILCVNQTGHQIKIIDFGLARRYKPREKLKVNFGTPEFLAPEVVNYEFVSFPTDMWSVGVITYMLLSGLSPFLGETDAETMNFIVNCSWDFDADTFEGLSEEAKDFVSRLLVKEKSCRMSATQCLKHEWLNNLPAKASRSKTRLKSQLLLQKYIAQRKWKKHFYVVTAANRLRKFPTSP

EPHB4 = target: T3, EPHB4 (Homo sapiens, UniProt P54760); assay: biochemical; settings: read-out: % enzyme activity, 1 μM; Run 1, Run 2
T3 sequence (P54760 16-987): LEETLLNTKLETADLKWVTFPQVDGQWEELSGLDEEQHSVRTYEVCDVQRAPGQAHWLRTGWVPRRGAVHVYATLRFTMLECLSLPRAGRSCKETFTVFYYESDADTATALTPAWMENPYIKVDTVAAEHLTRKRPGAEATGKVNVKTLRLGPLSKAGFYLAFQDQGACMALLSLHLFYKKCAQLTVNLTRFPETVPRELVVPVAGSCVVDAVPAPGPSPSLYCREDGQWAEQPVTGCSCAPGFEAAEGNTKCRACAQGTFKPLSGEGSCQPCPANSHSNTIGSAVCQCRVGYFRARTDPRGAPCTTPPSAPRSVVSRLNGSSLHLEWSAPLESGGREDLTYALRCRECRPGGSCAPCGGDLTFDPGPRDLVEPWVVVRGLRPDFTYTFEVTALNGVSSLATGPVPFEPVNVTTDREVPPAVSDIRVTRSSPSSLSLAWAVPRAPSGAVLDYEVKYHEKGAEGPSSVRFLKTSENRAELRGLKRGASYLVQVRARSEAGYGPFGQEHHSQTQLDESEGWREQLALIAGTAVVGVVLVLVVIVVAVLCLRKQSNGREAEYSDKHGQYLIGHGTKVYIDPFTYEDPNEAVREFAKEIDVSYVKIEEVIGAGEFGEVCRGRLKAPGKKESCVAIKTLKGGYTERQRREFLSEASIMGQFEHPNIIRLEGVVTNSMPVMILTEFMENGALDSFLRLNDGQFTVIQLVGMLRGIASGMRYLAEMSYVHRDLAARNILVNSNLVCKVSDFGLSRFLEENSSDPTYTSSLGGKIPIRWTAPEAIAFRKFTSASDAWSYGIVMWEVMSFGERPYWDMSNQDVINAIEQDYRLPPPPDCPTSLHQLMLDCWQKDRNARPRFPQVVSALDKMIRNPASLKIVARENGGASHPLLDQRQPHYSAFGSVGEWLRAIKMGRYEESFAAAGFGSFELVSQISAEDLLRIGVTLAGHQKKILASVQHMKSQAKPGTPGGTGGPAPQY

PKAcg = PKAcg (Homo sapiens, UniProt P22612); assay: biochemical; settings: read-out: % enzyme activity, 1 μM; Run 1, Run 2
Chain of PKAcg (P22612 whole entry): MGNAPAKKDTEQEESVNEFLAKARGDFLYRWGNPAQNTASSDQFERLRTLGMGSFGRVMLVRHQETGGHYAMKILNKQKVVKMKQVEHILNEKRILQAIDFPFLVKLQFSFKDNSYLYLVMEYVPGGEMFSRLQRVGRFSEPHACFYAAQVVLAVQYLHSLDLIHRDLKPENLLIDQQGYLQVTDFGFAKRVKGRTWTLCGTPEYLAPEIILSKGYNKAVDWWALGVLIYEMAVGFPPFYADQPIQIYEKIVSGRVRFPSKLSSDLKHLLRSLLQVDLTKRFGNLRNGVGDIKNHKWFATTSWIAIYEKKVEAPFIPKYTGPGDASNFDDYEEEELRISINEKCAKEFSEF

CDK6/cyclin D3 = CDK6/cyclin D3 (Homo sapiens, UniProt Q00534); assay: biochemical; settings: read-out: % enzyme activity, 1 μM; Run 1, Run 2
Chain of CDK6/cyclin D3 (Q00534 whole entry): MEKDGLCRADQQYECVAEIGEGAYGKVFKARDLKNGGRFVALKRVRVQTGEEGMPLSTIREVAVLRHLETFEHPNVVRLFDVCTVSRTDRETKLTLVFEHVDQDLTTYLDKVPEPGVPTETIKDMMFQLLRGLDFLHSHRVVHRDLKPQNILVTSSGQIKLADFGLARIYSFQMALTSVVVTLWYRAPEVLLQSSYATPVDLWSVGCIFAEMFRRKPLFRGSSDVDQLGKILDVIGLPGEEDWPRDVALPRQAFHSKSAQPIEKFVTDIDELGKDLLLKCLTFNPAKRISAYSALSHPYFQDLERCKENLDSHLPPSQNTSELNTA
Chain of CDK6/cyclin D3 (P30281 whole entry partner): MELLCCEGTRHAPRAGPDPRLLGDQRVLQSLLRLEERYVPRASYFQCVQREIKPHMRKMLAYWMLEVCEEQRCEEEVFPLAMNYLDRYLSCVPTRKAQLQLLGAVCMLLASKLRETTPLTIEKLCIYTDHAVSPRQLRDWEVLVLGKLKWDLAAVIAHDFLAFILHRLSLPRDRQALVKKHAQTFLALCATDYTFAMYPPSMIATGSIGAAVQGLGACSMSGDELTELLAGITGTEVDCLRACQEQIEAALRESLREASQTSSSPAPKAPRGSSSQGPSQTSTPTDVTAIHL

PAK1 = PAK1 (Homo sapiens, UniProt Q13153); assay: biochemical; settings: read-out: % enzyme activity, 1 μM; Run 1, Run 2
Chain of PAK1 (Q13153 whole entry): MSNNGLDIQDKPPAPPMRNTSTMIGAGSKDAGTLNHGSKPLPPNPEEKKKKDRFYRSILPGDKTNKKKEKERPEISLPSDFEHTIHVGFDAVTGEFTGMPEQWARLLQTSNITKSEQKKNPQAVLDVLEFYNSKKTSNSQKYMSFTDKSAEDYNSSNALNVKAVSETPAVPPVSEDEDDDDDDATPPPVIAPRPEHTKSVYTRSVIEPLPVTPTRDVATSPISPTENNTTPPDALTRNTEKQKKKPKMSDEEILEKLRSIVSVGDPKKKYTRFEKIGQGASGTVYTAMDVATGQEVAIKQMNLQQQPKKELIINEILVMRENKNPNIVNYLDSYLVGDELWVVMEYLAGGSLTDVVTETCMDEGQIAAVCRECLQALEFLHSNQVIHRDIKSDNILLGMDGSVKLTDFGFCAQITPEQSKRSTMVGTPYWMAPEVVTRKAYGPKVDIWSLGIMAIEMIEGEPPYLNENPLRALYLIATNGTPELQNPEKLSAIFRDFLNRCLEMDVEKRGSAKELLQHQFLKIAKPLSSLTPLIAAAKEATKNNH

CDK2/Cyclin A1 = CDK2/Cyclin A1 (Homo sapiens, UniProt P24941); settings: 1 μM; Run 1, Run 2
FLT1/VEGFR1 = FLT1/VEGFR1 (Homo sapiens, UniProt P17948); assay: biochemical; settings: read-out: % enzyme activity, 1 μM; Run 1, Run 2
Chain of FLT1/VEGFR1 (P17948 27-1338): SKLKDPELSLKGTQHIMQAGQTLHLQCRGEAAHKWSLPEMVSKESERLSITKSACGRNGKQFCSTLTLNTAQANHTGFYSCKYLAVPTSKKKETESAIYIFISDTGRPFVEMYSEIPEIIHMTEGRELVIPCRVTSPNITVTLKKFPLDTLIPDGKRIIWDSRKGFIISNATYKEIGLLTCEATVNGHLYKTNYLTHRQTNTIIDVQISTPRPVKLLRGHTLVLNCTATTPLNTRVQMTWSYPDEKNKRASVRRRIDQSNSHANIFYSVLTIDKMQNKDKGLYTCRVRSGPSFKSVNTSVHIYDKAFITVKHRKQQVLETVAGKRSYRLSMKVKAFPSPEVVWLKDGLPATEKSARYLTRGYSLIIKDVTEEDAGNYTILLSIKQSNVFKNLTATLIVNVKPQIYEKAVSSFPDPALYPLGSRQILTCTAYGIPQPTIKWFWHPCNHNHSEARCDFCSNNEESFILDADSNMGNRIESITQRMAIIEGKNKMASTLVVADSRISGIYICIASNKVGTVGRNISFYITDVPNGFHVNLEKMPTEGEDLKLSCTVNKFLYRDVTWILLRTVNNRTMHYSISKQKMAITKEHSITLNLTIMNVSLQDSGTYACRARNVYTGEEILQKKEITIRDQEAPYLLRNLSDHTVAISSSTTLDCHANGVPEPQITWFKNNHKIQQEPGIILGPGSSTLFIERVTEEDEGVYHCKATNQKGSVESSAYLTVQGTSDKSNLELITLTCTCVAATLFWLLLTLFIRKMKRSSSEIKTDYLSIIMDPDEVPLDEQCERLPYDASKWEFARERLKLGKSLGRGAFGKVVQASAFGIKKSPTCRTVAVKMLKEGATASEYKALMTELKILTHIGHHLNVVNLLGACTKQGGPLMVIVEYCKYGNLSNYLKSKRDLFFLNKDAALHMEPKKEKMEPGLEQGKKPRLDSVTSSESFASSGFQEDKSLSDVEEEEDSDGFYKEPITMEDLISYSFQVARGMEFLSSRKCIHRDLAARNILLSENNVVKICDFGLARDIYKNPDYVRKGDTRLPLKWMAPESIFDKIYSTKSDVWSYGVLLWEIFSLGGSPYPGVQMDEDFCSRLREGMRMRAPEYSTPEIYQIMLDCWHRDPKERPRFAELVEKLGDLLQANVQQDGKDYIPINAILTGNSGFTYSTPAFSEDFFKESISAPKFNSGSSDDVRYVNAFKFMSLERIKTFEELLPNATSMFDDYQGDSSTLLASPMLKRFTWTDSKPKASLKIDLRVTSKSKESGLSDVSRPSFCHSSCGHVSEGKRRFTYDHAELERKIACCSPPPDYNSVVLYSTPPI

JAK2 = JAK2 (Homo sapiens, UniProt O60674); assay: biochemical; settings: read-out: % enzyme activity, 1 μM; Run 1, Run 2

Chain of PLK2 (Q9NYY3 whole entry): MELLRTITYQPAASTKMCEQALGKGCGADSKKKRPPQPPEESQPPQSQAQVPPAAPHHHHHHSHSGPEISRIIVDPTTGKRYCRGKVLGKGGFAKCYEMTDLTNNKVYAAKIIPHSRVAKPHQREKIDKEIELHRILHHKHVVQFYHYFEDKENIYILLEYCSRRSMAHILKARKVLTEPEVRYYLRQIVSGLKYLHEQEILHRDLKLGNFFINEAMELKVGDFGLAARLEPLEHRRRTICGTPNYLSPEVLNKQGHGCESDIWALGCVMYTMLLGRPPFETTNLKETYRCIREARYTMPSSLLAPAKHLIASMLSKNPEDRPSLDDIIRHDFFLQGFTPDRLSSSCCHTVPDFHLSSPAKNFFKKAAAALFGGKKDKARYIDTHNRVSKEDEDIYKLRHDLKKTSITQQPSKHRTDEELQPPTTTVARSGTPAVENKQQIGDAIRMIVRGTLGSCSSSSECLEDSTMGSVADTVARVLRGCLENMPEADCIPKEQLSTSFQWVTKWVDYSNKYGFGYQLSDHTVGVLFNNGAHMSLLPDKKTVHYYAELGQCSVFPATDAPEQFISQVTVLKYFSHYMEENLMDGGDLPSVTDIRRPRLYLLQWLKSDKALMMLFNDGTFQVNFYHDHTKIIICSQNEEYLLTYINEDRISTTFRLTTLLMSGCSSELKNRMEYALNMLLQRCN

Row | Compound | remaining activity at 1 µM (PLK2) | % enzyme activity (DYRK4) | remaining activity at 1 µM (PDGFRa) | remaining activity at 1 µM (SLK/STK2) | remaining activity at 1 µM (HIPK2) | remaining activity at 1 µM (MYLK3) | remaining activity at 1 µM (EPHB4) | remaining activity at 1 µM (PKAcg) | remaining activity at 1 µM (CDK6/cyclin D3) | remaining activity at 1 µM (PAK1) | % enzyme activity (CDK2/Cyclin A1) | remaining activity at 1 µM (FLT1/VEGFR1) | remaining activity at 1 µM (JAK2)
1 | COc1cc(-c2cncc(-c3ccc(N4CCN(C)CC4)cc3)c2C)cc(F)c1C(N)=O [Compound 26a, 2-Fluoro-6-methoxy-4-(4-methyl-5-(4-(4-methylpiperazin-1-yl)phenyl)pyridin-3-yl)benzamide] | 98.8% | 102.49% | 82.9% | 100% | 99.8% | 99.8% | 94.7% | 94.1% | 86.3% | 105% | 99.67% | 107% | 93.5%
2 | COc1cc(-c2cncc(-c3ccc(N4C[C@@H](C)N(C)[C@@H](C)C4)cc3)c2C)cc(F)c1C(N)=O [Compound 26c, 2-Fluoro-6-methoxy-4-(4-methyl-5-(4-((3R,5S)-3,4,5-trimethylpiperazin-1-yl)phenyl)pyridin-3-yl)benzamide] | 103% | 100.24% | 81.9% | 101% | 103% | 100% | 91.5% | 101% | 103% | 103% | 97.14% | 108% | 88.6%
